Among the data in patent publication US8163737B2 (Vertex Pharmaceuticals Incorporated, priority 2006, dated 2012) are IC50 values, retold here.

Sequence of endogenous CGRP receptor (Q16602 23-461): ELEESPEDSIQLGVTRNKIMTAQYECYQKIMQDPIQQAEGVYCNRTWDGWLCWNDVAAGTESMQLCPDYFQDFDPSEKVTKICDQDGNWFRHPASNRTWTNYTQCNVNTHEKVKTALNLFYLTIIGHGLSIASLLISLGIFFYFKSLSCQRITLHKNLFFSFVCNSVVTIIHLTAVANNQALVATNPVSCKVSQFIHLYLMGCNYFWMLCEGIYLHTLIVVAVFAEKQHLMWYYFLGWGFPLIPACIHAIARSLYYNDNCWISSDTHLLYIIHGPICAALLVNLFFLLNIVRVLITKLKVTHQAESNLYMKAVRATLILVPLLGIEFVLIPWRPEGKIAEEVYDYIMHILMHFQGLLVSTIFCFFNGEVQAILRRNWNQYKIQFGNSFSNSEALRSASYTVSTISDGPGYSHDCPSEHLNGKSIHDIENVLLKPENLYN
Sequence of endogenous CGRP receptor (O60894 27-148): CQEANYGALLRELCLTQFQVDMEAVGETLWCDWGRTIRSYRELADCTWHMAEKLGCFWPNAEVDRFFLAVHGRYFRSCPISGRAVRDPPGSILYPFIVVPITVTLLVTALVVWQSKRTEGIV

This assay has as its target endogenous CGRP receptor (Homo sapiens, UniProt O60894+Q16602). Description: CGRP functional antagonism using SK-N-MC-BLA (4C10), β-lactamase transcriptional reporter assay. Particulars: SK-N-MC (4C10) cells, inhibition of β-lactamase expression in the presence of 200 pM CGRP. The class given is cell-based. The source says: Measuring CGRP Functional Antagonism Using SK-N-MC-BLA (4C10):
CGRP functional antagonism was characterized in a cell based transcriptional assay using a recombinant SK-N-MC line. To introduce the transcriptional reporter system, SK-N-MC cell line was transduced with a retroviral vector containing β-lactamase gene downstream of cAMP responsive promoter. The expression of β-lactamase is triggered by cAMP increase that is a downstream event of activation of endogenous CGRP receptor. Single clones were separated using Fluorescent Activated Cell Sorting (FACS) based on CGRP induced β-lactamase activity. β-lactamase activity was measured using a fluorescence energy transfer (FRET) dye, CCF4. […] To evaluate functional antagonist activity of compounds in SK-N-MC (4C10) line, compounds were evaluated for their inhibition of β-lactamase expression in the presence of CGRP.
SK-N-MC (4C10) was cultured in Minimal Essential Media (MEM) (Invitrogen) supplemented with 1 mM non-essential amino acids solution (Invitrogen), 100 units/ml Penicillin-Streptomycin (Invitrogen), 1 mM sodium pyruvate (Invitrogen) and 10% fetal bovine serum. For the β-lactamase assay, low serum, 1% FBS in MEM was used. 30,000 cells were plated into each wells of poly-D-lysine coated 384-well plate (Becton Dickinson) a day prior to the assay. SK-N-MC (4C10) was preincubated with compounds for 30 min before the addition of 200 pM CGRP. The assay was incubated for 3 hours at 37° C. to allow β-lactamase expression. CCF4 dye was added and incubated for 2 hours at room temperature. […] Curve fitting and IC50 calculation were carried about using MOD3.
Broadly, the IC50 is the point on the concentration scale where inhibition reaches its midpoint. With `O=C(CC1SC(c2cccc(F)c2F)N(CC2CCCCC2)C1=O)N1CCC(N2Cc3ccccc3NC2=O)CC1` (stereo not shown) [Compound 92], the IC50 is under 1000 nM.
The value for `CC(C)CCN1C(=O)C(CC(=O)N2CCC(N3CCc4ccccc4NC3=O)CC2)SC1c1cc(C(F)(F)F)ccc1F` (stereo not shown) [Compound 13] was under 1000 nM; that for `CC(C)(C)CCN1C(=O)C(CC(=O)N2CCC(n3c(=O)[nH]c4ccccc43)CC2)SC1c1ccccc1N1CCCCC1` (stereo not shown) [Compound 298] was under 1000 nM.
Consider `CC(C)(C)CCN1C(=O)C(CC(=O)N2CCC(N3Cc4ccccc4NC3=O)CC2)SC1c1c(F)cccc1F` (stereo not shown) [Compound 25], for which the 50% inhibitory concentration (IC50) is under 1000 nM.
The value for `COc1ccc(F)cc1C1CCN(C(=O)CC2SC(c3ccccc3)N(CCC(C)C)C2=O)CC1` (stereo not shown) [Compound 281] was over 5000 nM.
As for `CC(C)CCN1C(=O)C(CC(=O)N2CCC(n3c(=O)[nH]c4ncccc43)CC2)SC1c1ccccc1N1CCN(C)CC1` (stereo not shown) [Compound 59], the IC50 was under 1000 nM.
For the molecule `CC(C)CCN1C(=O)C(CC(=O)N2CCC(N3Cc4ccccc4NC3=O)CC2)SC1C(C)c1ccccc1` (stereo not shown) [Compound 101], the IC50 is over 5000 nM.
As to `O=C(CC1SC(c2ccccc2)N(CC2CCCO2)C1=O)N1CCC(N2CCc3ccccc3NC2=O)CC1` (stereo not shown) [Compound 83], the IC50 was under 1000 nM.
With `CC(C)CCN1C(=O)C(CC(=O)N2CCC(N3Cc4ccccc4NC3=O)CC2)SC1CCc1ccccc1` (stereo not shown) [Compound 6], the IC50 is under 1000 nM.
The value for `CC(C)(C)CCN1C(=O)C(CC(=O)N2CCC(N3CCc4ccccc4NC3=O)CC2)SC12CCCc1ccccc12` (stereo not shown) [Compound 308] was under 1000 nM; that for `CC(C)CCN1C(=O)C(CC(=O)N2CCC(N3CCc4ccccc4NC3=O)CC2)SC12CCCCCC2` (stereo not shown) [Compound 91] was under 1000 nM; that for `CC(C)CCN1C(=O)C(CC(=O)N2CCC3(CC2)C(=O)N(C)c2ccccc23)SC1c1ccccc1` (stereo not shown) [Compound 29] was over 5000 nM.
Turning to `CC(C)(C)CCN1C(=O)C(CC(=O)N2CCC(n3c(=O)[nH]c4ncccc43)CC2)SC1c1cccc(F)c1N1CCN(C2CC2)CC1` (stereo not shown) [Compound 390], the IC50 was over 5000 nM.
With `CC(C)(C)CCN1C(=O)C(CC(=O)N2CCC(N3CCc4ccccc4NC3=O)CC2)SC12CCc1ccccc12` (stereo not shown) [Compound 318], the IC50 is under 1000 nM.
The value for `CN1CCN(c2ccccc2C2SC(CC(=O)N3CCC(CO)CC3)C(=O)N2CCC(C)(C)C)CC1` (stereo not shown) [Compound 85] was over 5000 nM; that for `CC(C)(C)CCN1C(=O)C(CC(=O)N2CCC(N3CCc4ccccc4NC3=O)CC2)SC1c1ccccc1N1CCC(N2CCCCC2)CC1` (stereo not shown) [Compound 384] was over 5000 nM.
As to `C=CCN1C(=O)C(CC(=O)N2CCC(N3Cc4ccccc4NC3=O)CC2)SC1c1ccccc1` (stereo not shown) [Compound 254], the IC50 is 1000 to 5000 nM.
The value for `CC(C)N1CCN(c2c(F)cccc2[C@H]2S[C@@H](CC(=O)N3CCC(N4CCc5ccccc5NC4=O)CC3)C(=O)N2CCC(C)(C)C)CC1` [Compound 396] was 1000 to 5000 nM; that for `CC(C)CCN1C(=O)C(CC(=O)N2CCC(N3Cc4ccccc4NC3=O)CC2)SC1c1cc(C(F)(F)F)ccc1F` (stereo not shown) [Compound 136] was under 1000 nM; that for `Cc1c(F)cccc1C1SC(CC(=O)N2CCC(N3Cc4ccccc4NC3=O)CC2)C(=O)N1CCC(C)C` (stereo not shown) [Compound 267] was under 1000 nM.
The value for `CC(C)CC1SC(CC(=O)N2CCC(N3CCc4ccccc4NC3=O)CC2)C(=O)N1CCc1ccncc1` (stereo not shown) [Compound 245] was over 5000 nM.
With `CCN1CCN(c2c(F)cccc2C2SC(CC(=O)N3CCC(N4Cc5ccccc5NC4=O)CC3)C(=O)N2CCC(C)(C)C)CC1` (stereo not shown) [Compound 344], the IC50 is under 1000 nM.
The value for `CC(C)(C)CCN1C(=O)[C@H](CC(=O)N2CCC(O)(c3ccc(F)cc3)CC2)SC1c1cccc(F)c1N1CCN(C(C)(C)C)CC1` (stereo partly shown) [Compound 454] was over 5000 nM; that for `CC(C)CC(CO)N1C(=O)C(CC(=O)N2CCC(N3CCc4ccccc4NC3=O)CC2)SC1c1ccccc1` (stereo not shown) [Compound 214] was 1000 to 5000 nM; that for `COC(=O)[C@@H](CC1CCCCC1)N1C(=O)C(CC(=O)N2CCC(N3CCc4ccccc4NC3=O)CC2)SC1c1ccccc1` (stereo partly shown) [Compound 243] was 1000 to 5000 nM.
